In patent US4656166A, “Antibiotic compounds derived from cephalosporins, process for their production and pharmaceutical compositions” (Sanofi, priority 1983, dated 1987):
In brackets after ≈: the same amount, converted by molar mass. Where a name gives a salt, the structure may show the parent alone. Read-outs that look alike come from different tables or passages of the source.

How the values were obtained:
[1] = test system: Klebsiella RO 30; assay: MIC, in vitro dilution method, Klebsiella RO 30 (Table III); type: cell-based; conditions: RO30; Klebsiella RO 30; dilution method; read-out: MIC
How it was run: (§1)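 Compounds are serially diluted in vitro and tested for bacteriostatic effect on each Gram-negative strain; the lowest inhibiting concentration is recorded as MIC (μg/ml).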

[2] = test system: Escherichia coli SOL 90; assay: septicemic model of the mouse, Escherichia coli SOL 90 (Table V); type: in vivo; conditions: SOL90, sc, 96 h, mouse septicemia, sub-cutaneous, 1 to 5 hours after inoculation, 4 days observation, read-out: DE50 (the source's name)
Description: The therapeutic effectiveness of the products was determined on the septicemic model of the mouse. the septicemia was initiated by the intraperitoneal innoculation of 0.5 ml of a suitable dilution of a suspension of the Escherichia coli SOL 90 strain. The products were administered in solution in a phosphate buffer pH 7.0 in a volume of 0.2 ml sub-cutaneously to batches of 10 mice, 1 to 5 hours after innoculation of the microorganism. After 4 days of observation in the course of which the mortality was noted, the 50% effective doses (DE 50) were calculated by the Muench and Reed method.

[3] = test system: Escherichia coli SOL 90; assay: MIC, in vitro dilution method, Escherichia coli SOL 90 (Table III); type: cell-based; conditions: SOL90; Escherichia coli SOL 90; dilution method; read-out: MIC
How it was run: as §1

[4] = test system: Escherichia coli 255; assay: MIC on beta-lactamase producing strain Escherichia coli 255 (Table IV); type: cell-based; conditions: Escherichia coli 255, producing beta-lactamases; read-out: MIC
Description: (§2) To evaluate the stability of these products towards beta-lactamases, their MIC was determined on isogenic strains producing and not producing beta-lactamases.
(§3) The results are expressed in μg/ml in Table IV.

[5] = test system: Enterobacter RO 154; assay: MIC, in vitro dilution method, Enterobacter RO 154 (Table III); type: cell-based; conditions: RO154; Enterobacter RO 154; dilution method; read-out: MIC
How it was run: as §1

[6] = test system: Proteus vulgaris GN 76/C.1; assay: MIC on beta-lactamase producing strain Proteus vulgaris GN 76/C.1 (Table IV); type: cell-based; conditions: GN76; Proteus vulgaris GN 76/C.1, producing beta-lactamases; read-out: MIC
Description: as §2, §3

[7] = test system: Klebsiella RO 30; assay: septicemic model of the mouse, Klebsiella RO 30 (Table V); type: in vivo; conditions: RO30, sc, 96 h, mouse septicemia, sub-cutaneous, 4 days observation, read-out: DE50 (the source's name)
[8] = test system: Citrobacter RL 49; assay: MIC, in vitro dilution method, Citrobacter RL 49 (Table III); type: cell-based; conditions: RL49; Citrobacter RL 49; dilution method; read-out: MIC
How it was run: as §1

[9] = test system: Proteus vulgaris RL 99 bis; assay: MIC, in vitro dilution method, Proteus vulgaris RL 99 bis (Table III); type: cell-based; conditions: RL99BIS; Proteus vulgaris RL 99 bis; dilution method; read-out: MIC
How it was run: as §1

[10] = test system: Serrtia liquefaciens SL/326 A; assay: MIC on beta-lactamase producing strain Serratia liquefaciens SL/326 A (Table IV); type: cell-based
Description: as §2, §3

[11] = test system: Serrtia liquefaciens SL 1326 S; assay: MIC on strain not producing beta-lactamase, Serratia liquefaciens SL 1326 S (Table IV); type: cell-based; conditions: SL1326S, not producing beta-lactamases
Description: as §2, §3

[12] = test system: Pseudomonas RL 112; assay: MIC, in vitro dilution method, Pseudomonas RL 112 (Table III); type: cell-based; conditions: RL112
How it was run: as §1

[13] = test system: Escherichia coli 255/L.7; assay: MIC on strain not producing beta-lactamase, Escherichia coli 255/L.7 (Table IV); type: cell-based
Description: as §2, §3

[14] = test system: Serratia RL 72; assay: MIC, in vitro dilution method, Serratia RL 72 (Table III); type: cell-based; conditions: RL72
How it was run: as §1

[15] = test system: Proteus vulgaris GN 76/C.1/3; assay: MIC on strain not producing beta-lactamase, Proteus vulgaris GN 76/C.1/3 (Table IV); type: cell-based; conditions: GN76, not producing beta-lactamases
Description: as §2, §3

[16] = Escherichia coli 255/L.7 *, not producing beta-lactamases, read-out: MIC

SMILES	MIC [1] [µg/mL]	ED50 [2] [mg/kg]	MIC [3] [µg/mL]	MIC [4] [µg/mL]	MIC [5] [µg/mL]	MIC [6] [µg/mL]	ED50 [7] [mg/kg]	MIC [8] [µg/mL]	MIC [9] [µg/mL]	MIC [10] [µg/mL]	MIC [11] [µg/mL]	MIC [12] [µg/mL]	MIC [13, 16] [µg/mL]	MIC [14] [µg/mL]	MIC [15] [µg/mL]	MIC ([13]; Escherichia coli, 255/L.7) [µg/mL]
CC(C)(O/N=C(\C(=O)NC1C(=O)N2C(C(=O)O)=C(COC(=O)CCN)C[S+]([O-])C12)c1csc(N)n1)C(=O)O (centres unmarked) [41 730]	0.25 (≈ 0.437 µM)	1.4	0.5 (≈ 0.873 µM)	0.25 (≈ 0.437 µM)	0.25 (≈ 0.437 µM)	0.25 (≈ 0.437 µM)	0.79	0.25 (≈ 0.437 µM)	≤ 0.12	0.5 (≈ 0.873 µM)	≤ 0.12	4 (≈ 6.99 µM)	≤ 0.12	1 (≈ 1.75 µM)	–	–
CC(C)(O/N=C(\C(=O)NC1C(=O)N2C(C(=O)O)=C(COC(=O)C3CCNCC3)C[S+]([O-])C12)c1csc(N)n1)C(=O)O (stereo not drawn) [41 862, 7-[2-(2-Amino 4-thiazolyl)2-(2-carboxy 2-propyloxyimino)acetamido]3-(4-piperidinyl)carbonyl oxymethyl 3-cepheme 4-carboxylic1β-S-oxide acid trifluoroacetate syn isomer]	0.25	0.13	0.25	≤ 0.12	1	≤ 0.12	0.1	0.25	≤ 0.12	≤ 0.25	≤ 0.12	4	–	0.5	≤ 0.12	0.12
CC(C)(O/N=C(\C(=O)NC1C(=O)N2C(C(=O)O)=C(COC(=O)[C@H]3CC[C@H](CN)CC3)C[S+]([O-])C12)c1csc(N)n1)C(=O)O (some centres unmarked) [42 117]	≤ 0.12	0.11	0.25 (≈ 0.39 µM)	0.125 (≈ 0.195 µM)	1 (≈ 1.56 µM)	≤ 0.06	–	0.25 (≈ 0.39 µM)	≤ 0.12	0.12 (≈ 0.187 µM)	≤ 0.06	4 (≈ 6.24 µM)	0.06 (≈ 0.0936 µM)	0.5 (≈ 0.78 µM)	≤ 0.06	–
CC(C)(ON=C(C(=O)NC1C(=O)N2C(C(=O)O)=C(CSC(=O)c3ccc(CN)cc3)C[S+]([O-])C12)c1csc(N)n1)C(=O)O (centres unmarked) [compound 42119]	0.5 (≈ 0.768 µM)	0.16	0.5 (≈ 0.768 µM)	0.25 (≈ 0.384 µM)	8 (≈ 12.3 µM)	0.12 (≈ 0.184 µM)	–	0.25 (≈ 0.384 µM)	≤ 0.12	0.25 (≈ 0.384 µM)	≤ 0.06	8 (≈ 12.3 µM)	0.12 (≈ 0.184 µM)	4 (≈ 6.15 µM)	–	–
CC(C)(O/N=C(\C(=O)NC1C(=O)N2C(C(=O)O)=C(COC(=O)CCCN)C[S+]([O-])C12)c1csc(N)n1)C(=O)O (centres unmarked) [41 854]	0.25 (≈ 0.426 µM)	0.23	0.25 (≈ 0.426 µM)	≤ 0.12	2 (≈ 3.41 µM)	0.25 (≈ 0.426 µM)	0.19	0.5 (≈ 0.852 µM)	≤ 0.12	0.25 (≈ 0.426 µM)	≤ 0.12	4 (≈ 6.82 µM)	≤ 0.12	0.5 (≈ 0.852 µM)	–	–
CC(C)(ON=C(C(=O)NC1C(=O)N2C(C(=O)O)=C(CSC(=O)C3CCNCC3)C[S+]([O-])C12)c1csc(N)n1)C(=O)O (centres unmarked) [compound 41973]	–	0.22	–	0.25 (≈ 0.398 µM)	–	0.5 (≈ 0.795 µM)	0.4	–	–	0.25 (≈ 0.398 µM)	≤ 0.12	–	0.25 (≈ 0.398 µM)	–	–	–
CC(C)(CN)C(=O)OCC1=C(C(=O)O)N2C(=O)C(NC(=O)/C(=N\OC(C)(C)C(=O)O)c3csc(N)n3)C2[S+]([O-])C1 (centres unmarked) [42 073]	0.5 (≈ 0.832 µM)	0.33	1 (≈ 1.66 µM)	0.5 (≈ 0.832 µM)	4 (≈ 6.66 µM)	0.5 (≈ 0.832 µM)	–	0.5 (≈ 0.832 µM)	0.5 (≈ 0.832 µM)	0.25 (≈ 0.416 µM)	≤ 0.12	4 (≈ 6.66 µM)	0.25 (≈ 0.416 µM)	2 (≈ 3.33 µM)	–	–
CC(C)(O/N=C(\C(=O)NC1C(=O)N2C(C(=O)O)=C(COC(=O)CCCCCN)C[S+]([O-])C12)c1csc(N)n1)C(=O)O (centres unmarked) [41 855]	0.25 (≈ 0.407 µM)	0.16	0.25 (≈ 0.407 µM)	≤ 0.12	2 (≈ 3.25 µM)	≤ 0.12	0.17	1 (≈ 1.63 µM)	≤ 0.12	0.25 (≈ 0.407 µM)	≤ 0.12	8 (≈ 13 µM)	≤ 0.12	0.5 (≈ 0.813 µM)	≤ 0.12	–
CC(C)(O/N=C(\C(=O)NC1C(=O)N2C(C(=O)O)=C(COC(=O)c3ccc(CN)cc3)C[S+]([O-])C12)c1csc(N)n1)C(=O)O (centres unmarked) [42 042]	≤ 0.12	0.05	≤ 0.12	≤ 0.12	1 (≈ 1.58 µM)	≤ 0.12	–	≤ 0.12	≤ 0.12	0.25 (≈ 0.394 µM)	≤ 0.12	4 (≈ 6.3 µM)	≤ 0.12	2 (≈ 3.15 µM)	≤ 0.12	–
